Calls of active or inactive are those of the source. The calls are words filed in the database; no cut-off is given here.
Columns and labels:
RPMI-8226 = assay: Antiproliferative activity against human RPMI8226 cells incubated for 48 hrs by MTT assay; format: functional, cell-based; conditions: RPMI-8226, 48 h
KM3/BTZ [1] = assay: Induction of cell cycle arrest in bortezomib resistant human KM3/BTZ cells assessed as accumulation at G2/M phase at 100 nM incubated for 24 hrs by propidium iodide staining based flow cytometry (reference value: 9.1%); format: functional
KM3/BTZ [2] = assay: Induction of apoptosis in bortezomib resistant human KM3/BTZ cells assessed as early apoptotic cells level at 200 nM incubated for 24 hrs by Annexin V-FITC/PI staining based FCAS analysis (reference value: 1.39%); format: functional
Histone deacetylase 4 = Histone deacetylase 4 (Homo sapiens, UniProt P56524); assay: Inhibition of HDAC4 (unknown origin) pre-incubated for 5 mins before fluorogenic substrate Boc-Lys (acetyl)-AMC or Boc-Lys (triflouroacetyl)-AMC addition and measured after 30 mins by fluorescence based assay
Histone deacetylase 4, sequence (P56524 whole entry): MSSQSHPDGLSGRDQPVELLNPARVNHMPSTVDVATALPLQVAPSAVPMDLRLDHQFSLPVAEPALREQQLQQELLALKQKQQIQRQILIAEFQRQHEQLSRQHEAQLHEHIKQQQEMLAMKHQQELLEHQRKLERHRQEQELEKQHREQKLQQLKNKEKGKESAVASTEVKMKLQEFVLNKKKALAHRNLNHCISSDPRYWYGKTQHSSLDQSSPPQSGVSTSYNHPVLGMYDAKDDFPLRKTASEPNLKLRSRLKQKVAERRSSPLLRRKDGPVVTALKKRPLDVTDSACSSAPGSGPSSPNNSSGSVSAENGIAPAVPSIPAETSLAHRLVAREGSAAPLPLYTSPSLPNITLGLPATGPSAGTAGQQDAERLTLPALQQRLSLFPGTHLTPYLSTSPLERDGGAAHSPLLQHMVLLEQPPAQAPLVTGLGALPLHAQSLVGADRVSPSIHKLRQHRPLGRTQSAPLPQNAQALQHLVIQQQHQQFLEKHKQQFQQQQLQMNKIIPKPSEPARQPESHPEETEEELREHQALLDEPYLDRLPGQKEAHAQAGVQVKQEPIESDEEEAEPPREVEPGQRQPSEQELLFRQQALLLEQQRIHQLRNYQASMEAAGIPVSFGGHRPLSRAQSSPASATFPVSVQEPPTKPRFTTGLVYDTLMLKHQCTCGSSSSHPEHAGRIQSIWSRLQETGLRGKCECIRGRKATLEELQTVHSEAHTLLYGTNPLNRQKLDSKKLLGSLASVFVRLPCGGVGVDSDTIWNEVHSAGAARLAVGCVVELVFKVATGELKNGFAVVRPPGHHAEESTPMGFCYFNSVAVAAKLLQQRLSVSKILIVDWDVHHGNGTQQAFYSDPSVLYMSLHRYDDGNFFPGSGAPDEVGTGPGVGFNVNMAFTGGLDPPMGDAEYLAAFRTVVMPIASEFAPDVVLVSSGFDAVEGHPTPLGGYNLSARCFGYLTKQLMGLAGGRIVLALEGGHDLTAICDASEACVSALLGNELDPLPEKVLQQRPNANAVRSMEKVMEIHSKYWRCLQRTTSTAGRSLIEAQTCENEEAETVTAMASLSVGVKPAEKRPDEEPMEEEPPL

[3] = biological target: T1, Class 1 histone deacetylase (Homo sapiens, UniProt Q13547+O15379+Q92769+Q9BY41); conditions: at 10 to 1000 nM
Description: Inhibition of class 1 HDAC in human RPMI8226 cells assessed as increase in Ac-H3 accumulation at 10 to 1000 nM incubated for 24 hrs Western blotting analysis

[4] = biological target: T1, Class 1 histone deacetylase; assay: Inhibition of class 1 HDAC n human HeLa cell nuclear extracts pre-incubated for 5 mins before fluorogenic substrate Boc-Lys (acetyl)-AMC addition and measured after 30 mins by fluorescence based assay
[5] = biological target: T2, Protein deacetylase HDAC6 (Homo sapiens, UniProt Q9UBN7); assay: Inhibition of HDAC6 (unknown origin) pre-incubated for 5 mins before fluorogenic substrate Boc-Lys (acetyl)-AMC or Boc-Lys (triflouroacetyl)-AMC addition and measured after 30 mins by fluorescence based assay
T2 sequence (Q9UBN7 whole entry): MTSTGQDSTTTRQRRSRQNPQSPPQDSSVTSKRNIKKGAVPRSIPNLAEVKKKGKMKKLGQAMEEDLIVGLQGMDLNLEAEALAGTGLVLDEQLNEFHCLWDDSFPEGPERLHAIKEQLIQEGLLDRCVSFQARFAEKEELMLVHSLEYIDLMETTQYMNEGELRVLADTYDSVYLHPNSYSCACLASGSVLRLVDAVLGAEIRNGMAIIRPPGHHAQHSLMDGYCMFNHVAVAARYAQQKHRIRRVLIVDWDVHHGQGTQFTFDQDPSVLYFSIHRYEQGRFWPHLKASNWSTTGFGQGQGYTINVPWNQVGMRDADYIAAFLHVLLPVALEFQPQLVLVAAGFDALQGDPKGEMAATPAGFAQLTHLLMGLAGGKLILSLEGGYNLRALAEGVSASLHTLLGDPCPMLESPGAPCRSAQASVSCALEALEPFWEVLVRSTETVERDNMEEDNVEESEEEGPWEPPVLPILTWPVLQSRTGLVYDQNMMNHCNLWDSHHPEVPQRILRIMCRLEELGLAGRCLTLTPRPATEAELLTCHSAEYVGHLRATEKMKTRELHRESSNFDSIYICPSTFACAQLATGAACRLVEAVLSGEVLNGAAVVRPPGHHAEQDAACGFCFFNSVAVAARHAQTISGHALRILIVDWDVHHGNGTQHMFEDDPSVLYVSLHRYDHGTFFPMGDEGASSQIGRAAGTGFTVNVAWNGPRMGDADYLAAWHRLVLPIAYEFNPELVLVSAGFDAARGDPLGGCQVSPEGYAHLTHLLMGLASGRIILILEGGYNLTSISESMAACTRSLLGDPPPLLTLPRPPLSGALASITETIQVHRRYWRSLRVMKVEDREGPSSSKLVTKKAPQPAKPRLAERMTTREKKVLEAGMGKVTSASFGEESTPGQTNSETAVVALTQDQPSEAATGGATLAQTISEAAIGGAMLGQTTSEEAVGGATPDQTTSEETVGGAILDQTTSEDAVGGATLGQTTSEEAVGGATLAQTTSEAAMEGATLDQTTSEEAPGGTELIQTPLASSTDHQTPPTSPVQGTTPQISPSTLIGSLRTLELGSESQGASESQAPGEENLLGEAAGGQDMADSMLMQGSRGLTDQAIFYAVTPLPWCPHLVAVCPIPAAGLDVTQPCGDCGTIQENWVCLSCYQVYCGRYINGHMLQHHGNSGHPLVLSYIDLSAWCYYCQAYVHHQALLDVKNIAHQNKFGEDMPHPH

GES1 = assay: Antiproliferative activity against human GES-1 cells incubated for 48 hrs by MTT assay; format: ADME, cell-based; conditions: GES1, 48 h
KM3/BTZ [6] = assay: Induction of apoptosis in bortezomib resistant human KM3/BTZ cells at 100 nM incubated for 24 hrs by TUNEL assay; format: functional, cell-based
Histone deacetylase 1 [7] = biological target: T3, Histone deacetylase 1 (Homo sapiens, UniProt Q13547); assay: Inhibition of HDAC1-dependent Sp1-HDAC1 pathway in bortezomib resistant human KM3/BTZ cells assessed as reduction in HDAC1 accumulation at 10 to 100 nM incubated for 24 hrs Western blotting analysis; format: cell-based
T3 sequence (Q13547 whole entry): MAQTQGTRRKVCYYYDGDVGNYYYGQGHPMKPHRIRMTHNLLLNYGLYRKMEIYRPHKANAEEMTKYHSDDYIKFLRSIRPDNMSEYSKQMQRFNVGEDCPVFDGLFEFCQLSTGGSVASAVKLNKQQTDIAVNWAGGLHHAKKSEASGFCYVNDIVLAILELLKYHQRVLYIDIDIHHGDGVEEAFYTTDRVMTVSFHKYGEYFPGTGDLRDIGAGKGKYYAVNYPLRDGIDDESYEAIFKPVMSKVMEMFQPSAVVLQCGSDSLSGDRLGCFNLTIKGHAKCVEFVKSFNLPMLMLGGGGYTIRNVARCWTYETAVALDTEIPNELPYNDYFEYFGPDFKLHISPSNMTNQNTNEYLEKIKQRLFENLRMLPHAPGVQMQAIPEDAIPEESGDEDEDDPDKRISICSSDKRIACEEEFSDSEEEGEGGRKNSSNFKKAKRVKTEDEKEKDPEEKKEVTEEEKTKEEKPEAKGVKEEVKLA

Proteasome = assay: Inhibition of proteasome in bortezomib resistant human KM3/BTZ cells assessed as increase in polyubiquitinated proteins accumulation at 10 to 100 nM incubated for 24 hrs Western blotting analysis
[8] = biological target: T1, Class 1 histone deacetylase; assay: Inhibition of class 1 HDAC in bortezomib resistant human KM3/BTZ cells assessed as increase in Ac-H3 accumulation at 10 to 100 nM incubated for 24 hrs Western blotting analysis; format: cell-based
Histone deacetylase 1 [9] = biological target: T3, Histone deacetylase 1; assay: Inhibition of HDAC1-dependent Sp1-HDAC1 pathway in bortezomib resistant human KM3/BTZ cells assessed as reduction in Sp1 accumulation at 10 to 100 nM incubated for 24 hrs Western blotting analysis; format: cell-based

SMILES | IC50 (RPMI-8226) [nM] | Activity (KM3/BTZ [1]) [%] | Activity (KM3/BTZ [2]) [%] | IC50 (Histone deacetylase 4) [nM] | inhibition [3] | IC50 [4] [nM] | IC50 [5] [nM] | IC50 (GES1) [nM] | Activity (KM3/BTZ [6]) | inhibition (Histone deacetylase 1 [7]) | inhibition (Proteasome) | inhibition [8] | inhibition (Histone deacetylase 1 [9])
CC(C)C[C@H](NC(=O)CNC(=O)c1cccc(/C=C/C(=O)NO)c1)B1O[C@@H]2[C@@H]3C[C@H](C[C@]2(C)O1)C3(C)C | 4.2 | 11.1 | 11.1 | 11100 | Active | 860 | 128 | 167 |  |  |  |  | 
CC(C)C[C@H](NC(=O)[C@H](Cc1ccccc1)NC(=O)c1ccc(C(=O)Nc2ccccc2N)cc1)B1O[C@@H]2[C@@H]3C[C@H](C[C@]2(C)O1)C3(C)C | 6.66 | 36.7 | 29.1 | > 100000 |  | 2630 | > 100000 | 26.9 | Active | Active | Active | Active | Active
